The text below walks through data of US5593965A, “Anti-tumor effects of GnRH-III” (Creighton University, priority 1994, dated 1997).

“Also recorded” adds a separate entry of the source.

The test system of series [1] is ovulation in rats. Put plainly: In vivo assay of inhibition of ovulation (chemical castration). Set-up: species or system rat. The protocol:
Adult female rates(Wistar-R-Amsterdam), 200-250 grams, housed under controlled lighting (light period 05:00 to 19:00) with free access to pelleted food and tap water were used herein. For the in vivo assay of inhibition of ovulation, aliquots of peptide solutions were injected subcutaneously into female rats at noon on the day of proestrous for single-dose tests and every day at noon for long term tests. Only rats which had previously shown three consecutive regular 4-day cycles, as indicated by vaginal smears test, were used herein. Animals were ovariectomized on the day of the first diestrous after the injection. Oviducts were prepared under stereo-microscope and tested for ova as is well known in the art.

For a further series, the system named is rat pituitary cells. Put plainly: Superfused rat pituitary cell system (LH release). It counts as cell-based. The protocol: The GnRH activity of the peptides were assayed by using the superfused rat pituitary cell system as described by Vigh and Schally, Peptides, 5:241-247, Suppl. 1, (1984) and Csernus and Schally, Neuroendocrine Research Methods, Greenstein, B., ed., Harwood Academic Publishers, London, pp66-102 (1985). Mixed cell populations of four regularly cycling female rats, at random stages of the estrous cycle, were used in each chamber of a superfusion apparatus. The cells were perfused for 12 hours with Medium 199 (Sigma) at a flow rate of 20 ml/hour, prior to administration of the peptides. […] The peptide-containing solutions are prepared from the stock solution immediately before use. At the beginning of each experiment, cells were rechallenged with potassium to check the secretability of Luteinizing Hormone, independent of the participation of specific hormone recptors. Fractions, 1 ml per 3 minutes, were collected and the concentration of Luteinzing Hormone was determined by radioimmunoassay. NIAMD radioimmunoassay kits were used for the Luteinizing Hormone and Follicle Stimulating Hormone assays. The superfusion data was analyzed by the computer program of Csernus and Schally (1985).

The subject of the next series is MDA-MB-231 cell line. It counts as cell-based, human. The note with it: dose range 1-50 μM. The text has this: (§1) Two human breast cancer cell lines were used. They were: (1) the estrogen receptor positive MCF-7 cell line and (2) the estrogen receptor negative MDA-MB-231 cell line. Both cell lines contain GnRH receptors. These cell lines were used to illustrate the anticancer effects of GnRH-III. The cells were maintained in Dulbecco-modified Eagle-minimal essential medium (DMEM, GIBCO) containing 10% fetal calf serum (10% FCS). The clonogenic assay provides information on the cell damaging effects of a substance in a dose-dependent manner. Three hundred cells were transferred into 35 mm Petri dishes in 2.5 ml of medium. On the following day, the cultures were treated with 1, 5, 10, 20, 30 and 50 μM doses of GnRH-III. Colonies which developed from specific cells were stained with crystal violet and counted on days 8 to 12 after treatment. Colony numbers of untreated control cultures were counted for comparison.

The next series deals with MCF-7 cell line. It counts as cell-based, human. The note with it: dose range 1-50 μM.
Source text: as §1

The test system of series [2] is human breast cancer cell lines. It is filed as cell-based.
Source text: as §1, with “comparison. The antiproliferation assay used herein measures the inhibition of cell proliferation due to drug exposure. Loose subconfluent cultures (6×10^5 -1×10^6 cells) in 100 mm Petri dishes were initiated and treated with 1, 5, 10, 20, 30 and 50 μM doses of GnRH-III on every other day for various periods of time. On day 6, the cell numbers of both control and treated cultures were counted in a Neubauer-type hemocytometer.” for “comparison.”

In series [3] the test system is ovulation in rats. The settings on record: cited from earlier work.

Take `NCCCC[C@H](NC(=O)[C@H](Cc1c[nH]c2ccccc12)NC(=O)[C@H](CC(=O)O)NC(=O)[C@H](Cc1c[nH]cn1)NC(=O)[C@H](CO)NC(=O)[C@H](Cc1c[nH]c2ccccc12)NC(=O)[C@H](Cc1c[nH]cn1)NC(=O)[C@@H]1CCC(=O)N1)C(=O)N1CCC[C@H]1C(=O)NCC(N)=O` [GnRH-III]: the influence on ovulation result with ovulation in rats [1] (female rats, subcutaneous, doses of 10^-9 to 10^-7 M) is recorded as “no influence on ovulation”. For the same compound, in the series with ovulation in rats [1] (rats), the function of gonads result was “did not influence the function of gonads; also recorded: does not influence gonadal function”. Also, the histology of ovary entry in the series on ovulation in rats [1] (rats, repeated injections) was “did not change histology of ovary; also recorded: did not change the histological character of ovary”. In addition, in the series on rat pituitary cells (10^-6 M), the “LH release at high concentration” value is given as “did cause LH release”. For the same compound, the “agonist/antagonist character in mammalian pituitary gland” value in the series on rat pituitary cells (doses of 10^-9 to 10^-7 M) is “neither agonist, nor antagonist”. The colony formation entry in the series on MDA-MB-231 cell line and in the series with MCF-7 cell line was “inhibited colony formation” each time. For the same compound, the “decrease in cloning efficiency” value in series [2] (at 30 μM) is recorded as 65-80%. For the same compound, the “anticancer activity compared with other GnRH analogs” value in series [2] (in vitro, human breast cancer cell lines) is “surpass that of the well known agonists Buserelin, Decapeptyl and Ovurelin, and to approximate that of the antagonists SB-30 and MI-1544”.

As for “[B-Asp(α-diethylamide^6 ],Gln^8)GnRH [TH-332, reference compound]”, the colony formation result in the series on MDA-MB-231 cell line and in the series with MCF-7 cell line was “did not inhibit colony formation” each time.

Turning to “human GnRH: hypothalamic peptide hormone stimulating release of Luteinizing Hormone and Follicle Stimulating Hormone (QHWSYGLRPG; Gonadoliberin-1; UniProt P01148 24-33, looked up) [reference compound]”, in the series on rat pituitary cells (doses 10^-9 -10^-7 M), the “induction of LH release” value is “did not induce Luteinizing Hormone (LH)-release” and the “inhibition of LH release induced by native GnRH” value is on record as “neither did it inhibit the LH-release induced by native GnRH”. In the series with ovulation in rats [3], the “effective doses on ovulation” value is recorded as 10^-9 to 10^-7 M.
